In ChEMBL document CHEMBL5729293, “Inhibitors of KEAP1-Nrf2 protein-protein interaction” (2022):

Test: Fluorescence Based Assay: The details of the KEAP1 KELCH ThermoFluor® Assay Construct are as follows: Kelch domain of human KEAP 1 (321-624 aa) was used in the assay. The protein was expressed in E. coli with 6His tag that was cleaved prior to receipt for use.ThermoFluor® experiments were carried out using instruments owned by Janssen Research and Discovery, L.L.C. through its acquisition of 3-Dimensional Pharmaceuticals, Inc. 1,8-ANS (Invitrogen) was used as a fluorescent dye. Protein (KEAP Kelch) and compound solutions were dispensed into black 384-well polypropylene PCR microplates (Abgene) and overlayed with silicone oil (1 μL, Fluka, type DC 200) to prevent evaporation.Reference wells contained KEAP Kelch without compounds, and the assay conditions were as follows: 1.1 μM (0.037mg/mL) KEAP Kelch, 80 μM 1,8-ANS, 25 mM PIPES, pH 7.0, 100 mM NaCl, 0.002% Tween-20.

SMILES | Kd [nM]
Cc1cnc([C@@H](c2ccn3c(C(F)F)nnc3c2C)C(C)(C)C(=O)O)cc1CN1CC2(CCOCC2)Oc2nc(OCCN3CCCCC3)c(C)cc2S1(=O)=O | < 1
Cc1ccc([C@@H](c2ccc3c(nnn3CC3CC3)c2C)C(C)(C)C(=O)O)cc1CN1CC2(CCOCC2)Oc2ncccc2S1(=O)=O | < 1
Cc1c([C@@H](CC(=O)O)c2ccc(Cl)c(CN3CC4CCCCN4c4ncccc4S3(=O)=O)c2)ccn2c(C(F)(F)F)nnc12 (stereo partly specified) | < 1
Cc1ccc([C@H](CC(=O)O)c2ccn3c(C(F)(F)F)nnc3c2C)cc1CN1C[C@H]2CCCN2c2ccccc2S1(=O)=O | < 1
Cc1ccc([C@@H](CC(=O)O)c2ccc3c(nnn3C3CC3)c2C)cc1CN1C[C@H]2CCCCN2c2ncccc2S1(=O)=O | < 1
Cc1ccc([C@H](CC(=O)O)c2ccn3c(C(F)F)nnc3c2C)cc1CN1C[C@H]2CCCN2c2ncccc2S1(=O)=O | < 1
Cc1ccc([C@H](c2ccn3c(C(F)F)nnc3c2C)C(C)(C)C(=O)O)nc1CN1CC2(CC2)Oc2nc(OCCN3CCCCC3)c(C)cc2S1(=O)=O | < 1
Cc1ccc([C@H](CC(=O)O)c2ccn3c(C4CC4)nnc3c2C)cc1CN1C[C@H]2CCCN2c2ncccc2S1(=O)=O | < 1
Cc1ccc([C@@H](c2ccn3c(C4CC4)nnc3c2C)C(C)(C)C(=O)O)cc1CN1CC2(CCOCC2)Oc2ncccc2S1(=O)=O | < 1
Cc1ncc([C@@H](c2ccn3c(C(F)(F)F)nnc3c2C)C(C)(C)C(=O)O)cc1CN1C[C@@H]2CCCCN2c2ncc(C#N)cc2S1(=O)=O | < 1
Cc1cnc(C(c2ccn3c(C(F)(F)F)nnc3c2C)C(C)(C)C(=O)O)cc1CN1CC2(CCOCC2)Oc2ncccc2S1(=O)=O (stereo unspecified) | < 1
Cc1ccc(C(CC(=O)O)c2ccn3c(C(F)F)nnc3c2C)cc1CN1CC2(CCOCC2)Oc2ncc(F)cc2S1(=O)=O (stereo unspecified) | < 1
Cc1cnc([C@@H](c2ccn3c(C(F)(F)F)nnc3c2C)C(C)(C)C(=O)O)cc1CN1CC2(CCOCC2)Oc2ncccc2S1(=O)=O | < 1
Cc1ccc([C@@H](c2ccn3c(C(F)(F)F)nnc3c2C)C(C)(C)C(=O)O)cc1CN1CC2(CCOCC2)Oc2nc(N[C@H](C)CCO)ccc2S1(=O)=O | < 1
Cc1ccc([C@H](CC(=O)O)c2ccn3c(C(F)F)nnc3c2C)cc1CN1CC2(COC2)Oc2ncccc2S1(=O)=O | < 1
Cc1cc2c(nc1OCCN1CCCC1)OC1(CC1)CN(Cc1cc([C@@H](c3ccc4c(nnn4C4CC4)c3C)C(C)(C)C(=O)O)cnc1C)S2(=O)=O | < 1
CCn1nnc2c(C)c(C(CC(=O)O)c3ccc(C)c(CN4CC5(COC5)Oc5ncccc5S4(=O)=O)n3)ccc21 (stereo unspecified) | < 1
Cc1ccc(C(CC(=O)O)c2ccn3c(C(F)(F)F)nnc3c2C)nc1CN1CC2(COC2)Oc2ncccc2S1(=O)=O (stereo unspecified) | < 1
Cc1cnc2c(c1)S(=O)(=O)N(Cc1cc([C@@H](c3ccn4c(C(F)(F)F)nnc4c3C)C(C)(C)C(=O)O)ccc1C)C[C@]1(CCOC1)O2 | < 1
CCn1nnc2c(C)c(C(CC(=O)O)c3ccc(C)c(CN4C[C@H]5CCCN5c5ncccc5S4(=O)=O)n3)ccc21 (stereo partly specified) | < 1
Cc1cnc2c(c1)S(=O)(=O)N(Cc1cc([C@@H](c3ccc4c(nnn4C4CC4)c3C)C(C)(C)C(=O)O)ccc1C)CC1(CCNCC1)O2 | < 1
Cc1ccc([C@H](CC(=O)O)c2ccn3c(C(F)F)nnc3c2C)cc1CN1CC2(COC2)Oc2ccccc2S1(=O)=O | < 1

SMILES | Kd [nM]
Cc1ccc([C@H](c2ccc3c(nnn3C3CC3)c2C)C(C)(C)C(=O)O)cc1CN1CC2(CCNCC2)Oc2ncccc2S1(=O)=O | < 1
Cc1ccc([C@@H](CC(=O)O)c2ccn3c(C(F)(F)F)nnc3c2C)nc1CN1C[C@@H]2CCCCN2c2ncccc2S1(=O)=O | < 1
Cc1ccc([C@H](c2ccn3c(C(F)(F)F)nnc3c2C)C(C)(C)C(=O)O)cc1CN1CC2(CCNCC2)Oc2ncccc2S1(=O)=O | > 10000
Cc1ccc(C(c2ccn3c(C(F)(F)F)nnc3c2C)C(C)(C)C(=O)O)cc1CN1CC2(CCOCC2)Oc2nc(OCCN3CCOCC3)ccc2S1(=O)=O (stereo unspecified) | < 1
Cc1ccc([C@H](CC(=O)O)c2ccn3c(C(F)(F)F)nnc3c2C)cc1CN1CC2(CC2)Oc2nc(NCCCO)ccc2S1(=O)=O | < 1
CCn1nnc2c(C)c(C(CC(=O)O)c3ccc(C)c(CN4C[C@@H]5CCCCN5c5ncccc5S4(=O)=O)n3)ccc21 (stereo partly specified) | < 1
Cc1ccc(C(CC(=O)O)c2ccn3c(C(F)(F)F)nnc3c2C)nc1CN1C[C@@H]2CCCCN2c2ncccc2S1(=O)=O (stereo partly specified) | < 1
Cc1ccc([C@H](CC(=O)O)c2ccn3c(C(F)(F)F)nnc3c2C)cc1CN1C[C@@H]2CCC(F)(F)CN2c2ncccc2S1(=O)=O | < 1
Cc1ccc(C(CC(=O)O)c2ccn3c(C(F)F)nnc3c2C)cc1CN1CC2(CC2)Oc2ncc(F)cc2S1(=O)=O (stereo unspecified) | < 1
Cc1cnc2c(c1)S(=O)(=O)N(Cc1cc([C@@H](c3ccn4c(C(F)F)nnc4c3C)C(C)(C)C(=O)O)ccc1C)CC1(COC1)O2 | < 1
Cc1ccc([C@H](CC(=O)O)c2ccn3c(C(F)(F)F)nnc3c2C)cc1CN1C[C@H]2CCCCN2c2ncccc2S1(=O)=O | < 1
CC[C@@H]1CN(Cc2nc([C@H](CC(=O)O)c3ccc4c(nnn4C4CC4)c3C)ccc2C)S(=O)(=O)c2cccnc2O1 | < 1
Cc1ccc(C(CC(=O)O)c2ccn3c(C(F)(F)F)nnc3c2C)cc1CN1CC2CCC(F)(F)CN2c2ncccc2S1(=O)=O (stereo unspecified) | < 1
Cc1ccc([C@H](CC(=O)O)c2ccn3c(C(F)(F)F)nnc3c2)cc1CN1C[C@@H]2CCCN2c2ncccc2S1(=O)=O | < 1
CCc1nnc2c(C)c(C(CC(=O)O)c3ccc(C)c(CN4C[C@H]5CCCN5c5ncccc5S4(=O)=O)c3)ccn12 (stereo partly specified) | < 1
Cc1cnc2c(c1)S(=O)(=O)N(Cc1cc([C@@H](c3ccn4c(C(F)F)nnc4c3C)C(C)(C)C(=O)O)ccc1C)CC1(CCOCC1)O2 | < 1
Cc1ccc([C@@H](CC(=O)O)c2ccn3c(C(F)(F)F)nnc3c2C)nc1CN1CC2(COC2)Oc2ccccc2S1(=O)=O | < 1
Cc1ccc([C@@H](CC(=O)O)c2ccn3c(C(F)(F)F)nnc3c2C)nc1CN1CC2(CC2)Oc2ncccc2S1(=O)=O | < 1
Cc1ccc([C@H](CC(=O)O)c2ccc3c(nnn3CC3CC3)c2C)cc1CN1C[C@H]2CCCCN2c2ncccc2S1(=O)=O | < 1
Cc1ccc([C@@H](c2ccn3c(C(F)(F)F)nnc3c2C)C(C)(C)C(=O)O)nc1CN1CC2(CCOCC2)Oc2ncccc2S1(=O)=O | < 1
Cc1ccc(C(CC(=O)O)c2ccn3c(C(F)F)nnc3c2C)cc1CN1C[C@@H]2CCCCN2c2ncccc2S1(=O)=O (stereo partly specified) | < 1
Cc1ccc([C@@H](CC(=O)O)c2ccn3c(C(F)(F)F)nnc3c2C)cc1CN1C[C@H]2CCCCN2c2ncccc2S1(=O)=O | < 1

SMILES | Kd [nM]
Cc1ccc([C@@H](c2ccn3c(C(F)(F)F)nnc3c2C)C(C)(C)C(=O)O)cc1CN1CC2(CC2)Oc2nc(OCCN3CCCCC3)c(C)cc2S1(=O)=O | < 1
Cc1cnc2c(c1)S(=O)(=O)N(Cc1cc([C@@H](CC(=O)O)c3ccn4c(C(F)(F)F)nnc4c3C)ccc1C)CC1(CC1)O2 | < 1
Cc1ccc([C@@H](c2ccn3c(C(F)F)nnc3c2C)C(C)(C)C(=O)O)cc1CN1CC2(CC2)Oc2nc(OCCN3CCCC3)c(C)cc2S1(=O)=O | < 1
CC[C@@H]1CN(Cc2cc(C(CC(=O)O)c3ccn4c(C(F)(F)F)nnc4c3C)ccc2C)S(=O)(=O)c2cccnc2O1 (stereo partly specified) | < 1
Cc1cnc2c(c1)S(=O)(=O)N(Cc1cc([C@H](c3ccn4c(C(F)(F)F)nnc4c3C)C(C)(C)C(=O)O)ccc1C)C[C@@]1(CCOC1)O2 | < 1
Cc1ccc([C@@H](CC(=O)O)c2ccn3c(C(F)(F)F)nnc3c2)cc1CN1C[C@@H]2CCCN2c2ncccc2S1(=O)=O | < 1
Cc1ccc(C(CC(=O)O)c2ccn3c(C(F)(F)F)nnc3c2C)nc1CN1CC2(CC2)Oc2ncccc2S1(=O)=O (stereo unspecified) | < 1
Cc1ccc(C(c2ccc3c(nnn3CC3CC3)c2C)C(C)(C)C(=O)O)nc1CN1CC2(CCOCC2)Oc2nc(OCCN3CCOCC3)ccc2S1(=O)=O (stereo unspecified) | < 1
Cc1ccc([C@H](CC(=O)O)c2ccc3c(nnn3CC3CC3)c2C)cc1CN1C[C@@H]2CCCCN2c2ncccc2S1(=O)=O | < 1
Cc1ccc([C@H](CC(=O)O)c2ccn3c(C(F)(F)F)nnc3c2C)cc1CN1CC(C)(C)Oc2ncccc2S1(=O)=O | < 1
Cc1cnc2c(c1)S(=O)(=O)N(Cc1nc([C@@H](CC(=O)O)c3ccn4c(C(F)(F)F)nnc4c3C)ccc1C)C[C@H]1CCCCN21 | < 1
Cc1ccc([C@@H](c2ccn3c(C(F)(F)F)nnc3c2C)C(C)(C)C(=O)O)nc1CN1CC2(CC2)Oc2nc(OCCN3CCCC3)c(C)cc2S1(=O)=O | < 1
Cc1ccc([C@@H](c2ccn3c(C(F)(F)F)nnc3c2C)C(C)(C)C(=O)O)cc1CN1CC2(CC2)Oc2nc(OCCN3CCC(F)CC3)c(C)cc2S1(=O)=O | < 1
Cc1ccc(C(CC(=O)O)c2ccn3c(C(F)(F)F)nnc3c2C)nc1CN1CC2(CC2)Oc2ncc(F)cc2S1(=O)=O (stereo unspecified) | < 1
Cc1cc2cc(C(CC(=O)O)c3ccc(C)c(CN4C[C@H]5CCCCN5c5ncccc5S4(=O)=O)c3)n(C)c2nn1 (stereo partly specified) | < 1
Cc1ccc([C@@H](CC(=O)O)c2ccn3c(C(F)(F)F)nnc3c2C)cc1CN1C[C@@H]2CCCCN2c2ncccc2S1(=O)=O | < 1
Cc1ccc(C(c2ccn3c(C(F)(F)F)nnc3c2C)C(C)(C)C(=O)O)cc1CN1CC2(CCOCC2)Oc2nc(OCCCO)ccc2S1(=O)=O (stereo unspecified) | < 1
Cc1ccc(C(CC(=O)O)c2ccn3c(C(F)F)nnc3c2C)cc1CN1C[C@@H]2CCCN2c2ncc(C#N)cc2S1(=O)=O (stereo partly specified) | < 1
Cc1ccc([C@@H](CC(=O)O)c2cc(OC3CC3)c3c(c2)nnn3C)cc1CN1C[C@H]2CCCCN2c2ncccc2S1(=O)=O | < 1
Cc1cnc2c(c1)S(=O)(=O)N(Cc1cc([C@@H](c3ccn4c(C(F)F)nnc4c3C)C(C)(C)C(=O)O)ccc1C)CC1(CC1)O2 | < 1
CC[C@@H]1CN(Cc2nc([C@@H](CC(=O)O)c3ccc4c(nnn4C4CC4)c3C)ccc2C)S(=O)(=O)c2cccnc2O1 | < 1
Cc1ccc([C@@H](CC(=O)O)c2ccn3c(C(F)(F)F)nnc3c2C)nc1CN1C[C@@H]2CCCCN2c2ncc(Cl)cc2S1(=O)=O | < 1
